Data set [1] relates to TNF-α in RAW264.7 macrophages stimulated by lipopolysaccharide. Put plainly: TNF-α ELISA in cell supernatant of LPS-stimulated RAW264.7 macrophages. The data set is classed as cell-based, mice. As to conditions: Mus musculus, RAW264.7, 2 h, 10 μM, 3 h pretreatment, LPS 100 ng/mL 2 h, RAW264.7; read-out: Percentage of TNF-α in a model group (%). Here is the method:
RAW264.7 cells were inoculated into a 96-well plate at a density of 1×10^5 per well. When the cell density was 70%-80%, 18 balasubramide derivatives were prepared into 10 mM working solutions with DMSO, respectively, and then used to pretreat mononuclear macrophages RAW264.7 of mice at a final concentration of 10 μM. After 3 h, lipopolysaccharide (LPS, 100 ng/mL) was added into all wells for action for 2 h except for a control group. A supernatant was collected for later use, and the expression level of an inflammatory factor TNF-α in the cell supernatant was detected according to an operation instruction of a commercial ELISA kit.
RAW264.7 cells were inoculated into a 96-well plate at a density of 1×10^5 per well. When the cell density was 70%-80%, the RAW264.7 cells were pretreated with (+)3C-20 ([…]). After 3 h, lipopolysaccharide (LPS, 100 ng/mL) was added into all wells for action for 2 h except for a control group. The expression level of an inflammatory factor TNF-α in a cell supernatant was detected according to an operation instruction of a commercial ELISA kit, and the cell viability at different administration concentrations of (+)3C-20 was determined according to an operation instruction of a CCK-8 kit.

Data set [2] relates to RAW264.7 cells. Put plainly: Cytotoxicity test, CCK-8 cell viability of RAW264.7 cells (24 h). The data set is classed as cell-based, mice. The conditions noted are these: 10 μM, RAW264.7 cell viability. Here is the method: RAW264.7 cells were inoculated into a 96-well plate at a density of 1×10^5 per well. When the cell density was 70%-80%, the RAW264.7 cells were pretreated with 10 mM working solutions prepared from 18 balasubramide derivatives at a final concentration of 10 μM for 24 h, and then the cell viability was determined by a CCK-8 method.

As to `C=CCn1c2c(c3ccccc31)CCNC(=O)[C@@H](OC(=O)CCc1ccc(C(F)(F)F)cc1)[C@@H]2c1ccc(C(F)(F)F)cc1` [(+)-c4], the activity at 10 µM in data set [1] was determined as 96.1 ± 1.48%. Also, the “Percentage of CCK-8 in a model group (%)” value in data set [2] is recorded as 110.28 ± 1.56%.

For the compound `CC(C)(C)OC(=O)N[C@H](CC(=O)O[C@@H]1C(=O)NCCc2c([nH]c3ccccc23)[C@H]1c1ccc(C(F)(F)F)cc1)c1ccc(C(F)(F)F)cc1` [(+)-c5], the activity at 10 µM in data set [1] was found to be 71.77 ± 0.56%. The “Percentage of CCK-8 in a model group (%)” value in data set [2] was determined as 110.66 ± 0.55%.

Take `O=C1NCCc2c([nH]c3ccc(Br)cc23)[C@@H](c2ccccc2)[C@@H]1O` [B001]: in data set [1], the activity at 10 µM worked out at 71.9 ± 3.5%. The “Percentage of CCK-8 in a model group (%)” value in data set [2] was 108.8 ± 2.72%.

Source of the values: patent US20240300959A1, “BALASUBRAMIDE DERIVATIVE AND USE THEREOF IN PREPARATION OF MEDICINE FOR TREATING ACUTE LUNG INJURY” (Guangdong Pharmaceutical University, priority 2023, published 2024).
